Values quoted from earlier work as cited in US12296036B2, “Method for dyeing keratinous material, including the application of an organosilicon compound, a dyeing compound, a sealing reagent and an alkaline pre-treatment agent” (HENKEL AG & CO. KGAA, priority 2021, dated 2025).

Q: Which water solubility (25° C.) does the source give for CCN(Cc1cccc(S(=O)(=O)[O-])c1)c1ccc(C(=C2C=CC(=[N+](CC)Cc3cccc(S(=O)(=O)[O-])c3)C=C2)c2ccccc2S(=O)(=O)[O-])cc1.[Na+].[Na+] [Acid Blue 9] here?
A: more than 20 wt. %

Q: With O=S(=O)([O-])c1ccc(N=Nc2c(O)ccc3ccccc23)cc1.[Na+] [Acid Orange 7, sodium salt of 4-[(2-hydroxy-1-naphthyl)azo]benzene sulphonate] as the compound, how does the solubility in water (25° C.) read?
A: more than 7 g/L

Q: Which solubility in water (25° C.) does the source give for Nc1cc(S(=O)(=O)[O-])cc2cc(S(=O)(=O)[O-])c(N=Nc3ccccc3)c(O)c12.[Na+].[Na+] [Acid Red 33, disodium salt of 5-amino-4-hydroxy-3-(phenylazo)-naphthalene-2,7-disulfonate] here?
A: 2.5 mg/mL

Q: Which solubility in water (25° C.) does the source give for O=C([O-])c1c(Cl)c(Cl)c(Cl)c(Cl)c1-c1c2cc(Br)c(=O)c(Br)c-2oc2c(Br)c([O-])c(Br)cc12.[Na+].[Na+] [Acid Red 92, disodium salt of 3,4,5,6-tetrachloro-2-(1,4,5,8-tetrabromo-6-hydroxy-3-oxanthene-9-yl) benzoic acid] here?
A: greater than 10 g/L

Q: For O=C([O-])C1=NN(c2ccc(S(=O)(=O)[O-])cc2)C(=O)C1N=Nc1ccc(S(=O)(=O)[O-])cc1.[Na+].[Na+].[Na+] (centres unmarked) [Acid Yellow 23, trisodium salt of 4,5-dihydro-5-oxo-1-(4-sulfophenyl)-4-((4-sulfophenyl)azo)-1H-pyrazole-3-carboxylic acid], which “solubility in water (in words)” value (in water at 25° C.) is on record?
A: readily soluble
